These results are taken from publication PMC9491098, “Discovery of novel drug-like antitubercular hits targeting the MEP pathway enzyme DXPS by strategic application of ligand-based virtual screening” (Chemical Science, 2022).

≈ marks a conversion by molar mass, not a printed value. Where “and” joins values, the source holds several entries; their conditions need not be identical. Equal values may be shown once. Read-outs that look alike come from different tables or passages of the source. Bounds are passed on as bounds.

For series [1], the target named is T1, MtDXPS (Mycobacterium tuberculosis, UniProt P9WNS3). Briefly: biochemical. The conditions noted are these: for inhibitory activity against MtDXPS, SAR statement: SAR discussion of Table 1A–C.
In series [2] the test system is mCherry-Mtb H37Rv. In kind it is cell-based, Mycobacterium tuberculosis.
Series [3] has as its system A549. Briefly: toxicity against human cell lines. In kind it is cell-based. The settings on record: A549, 48 h, read-out: Toxicity Human cell lines EC50 (μM) A549.
Series [4] relates to HEK293. Briefly: toxicity against human cell lines. In kind it is cell-based. The settings on record: HEK293, 48 h, read-out: Toxicity Human cell lines EC50 (μM) HEK293.
The subject of series [5] is HepG2. Briefly: toxicity against human cell lines. Type of series: cell-based. The settings on record: HepG2, 48 h, read-out: Toxicity Human cell lines EC50 (μM) HepG2.
A short description of series [6]: metabolic stability in human liver S9 fraction. The conditions noted are these: pooled liver S9 fraction.
Procedure: For vitro assessment of metabolic stability, 10 µL of each compound (10 µM) was
incubated with human pooled liver S9-fraction (1 mg/mL, Corning, Corning, NY, USA)
in a master mix containing 2 mM NADP, 10 mM glucose-6-phosphate, 10 U/mL
glucose-6-phosphate dehydrogenase, 1 mM UDPGA, 0.1 mM PAPS, 10 mM MgCl2.
acetonitrile containing diphenhydramine as internal standard at 4 °C. The supernatant
was used for LC-MS analysis and half life time t1/2 was calculated from decreasing
concentrations/peak areas.
LC conditions: samples were analyzed with an Ultimate 3000 HPLC (Thermo Fisher,
Waltham, MA, USA) coupled to a TSQ Quantum Access Max triple quadrupole mass
spectrometer (Thermo Fisher, Waltham, MA, USA) in SRM mode. Analysis was
performed on a Nucleodur C18 Pyramid column (3 µm, 2x150 mm, Macherey-Nagel,
Düren, Germany) with a flow of 0.6 mL/min and a water (0.1% formic acid) and
acetonitrile (0.1% formic acid) eluent system. Gradient as follows: 10% acetonitrile for
1 min, 10–90% acetonitrile over 0.7 min, 90% acetonitrile for 1.8 min, equilibration at
10% acetonitrile for 1 min.
MS conditions: calibration of mass spectrometer parameters was performed
individually for each compound:
Series [7] has as its target T1, MtDXPS. Briefly: biochemical.
In series [8] the target is T2, DrDXPS (WT) (Deinococcus radiodurans, UniProt Q9RUB5). The settings on record: pseudo-inhibitors; cited from earlier work.
Series [9] deals with T1, MtDXPS. The conditions noted are these: cited from earlier work.
For series [10], the target named is T2, DrDXPS (WT). Briefly: biochemical. The settings on record: for IC50: DrDXPS (WT) IC50, Fig. 2B; for inhibition at 100 µM: read-out: Inhibition % at 100 μM, Fig. 5E, DrDXPS (WT). In kind it is biochemical.
Series [11] concerns DXPS. The conditions noted are these: cited from earlier work.
For series [12], the system named is E. coli. The settings on record: Fig. 1A; cited from earlier work.
Series [13] deals with T1, MtDXPS.
Series [14] has as its system E. coli strain BL21 (DE3) pQEYAEM. Briefly: microbe, parasite or virus in culture. In kind it is cell-based. The conditions noted are these: Escherichia coli, Fig. 6A.
The subject of series [15] is M. tuberculosis strains. Briefly: MIC against multiple M. tuberculosis strains, absolute concentration method on 7H10 agar. The conditions noted are these: Mycobacterium tuberculosis. In kind it is cell-based.
The test system of series [16] is E. coli strain BL21 (DE3) pET22b-H6[…]. Briefly: microbe, parasite or virus in culture. In kind it is cell-based. The settings on record: Escherichia coli, Fig. 6B.
The target in series [17] is T1, MtDXPS. Briefly: microscale thermophoresis (MST) dissociation constant. Type of series: binding. The settings on record: Fig. 4F. As to the method:
ETB + A <===> ETAB : Ka2 (Ka2 is the dissociation constant of pyruvate with […]
ETA + B <===> ETAB : Kb2 (Kb2 is the dissociation constant of ThDP with DXPS) E + I <===> EI* : Ki* (Ki* is the Morrison inhibition constant of inhibitor with apoDXPS) ETAB ---> ET + P : kcat (kcat is the catalytic constant of DXPS) […]
microscale thermophoresis (MST)
MST measurements were performed on a Monolith NT.115 (NanoTemper
Technologies GmbH, Germany) instrument using red-dye-NHS fluorescent labeling.
Each purified MtDXPS sample was labeled with red-dye-NHS second generation dye, according to the supplied protocol. Measurements were performed in 100 m M Tris-HCl (pH 7.6) containing 0.05% Tween-20 and 5% DMSO in premium treated capillaries.
The final concentration of each labeled protein in the assay was 100 n M. The inhibitors were titrated in 1:1 dilutions according to the supplier’s recommendations. All binding reactions were incubated at room temperature for 30 min before loading, and then pre-incubated for 5 min at room temperature after loading into the capillaries. Experiments were performed in duplicates, using 40% LED power, medium MST power, laser on time 20 s, and laser off time 3 s. Kds of the inhibitors were extracted from raw data at a 10–20 s on time according to the manufacturer’s instructions. A denaturation test was performed to exclude any nonspecific spectral interactions between the inhibitors […]
The solutions were vortexed, and then the rest of the assay components was added in the following order: HEPES, pH = 8 (100 m M), bovine serum albumin (1 mg/mL), cysteine (2 mM), ThDP (0.325 μM), coenzyme-A (150 μM), TCEP (300 μM), pyruvate (150 μM) and MgCl2 (1 mM). […] Porcine PDH (final concentration of 0.01 U/ mL) was then added to initiate the reactions, which were monitored spectrophotometrically by measuring the […]
In general terms: Microscale thermophoresis detects binding through changes in fluorescence in a small temperature gradient.

Series [18] relates to E. coli TolC. Briefly: microbe, parasite or virus in culture. Type of series: cell-based. The conditions noted are these: Escherichia coli.
Setting [19] is: Table 1A, indole derivatives, MtDXPS, read-out: K i*.
The mark [20] stands for this setting: Table S3, third round of LBVS, MtDXPS, read-out: IC50.
[21] abbreviates: Table 1C, aminothiazole derivatives, MtDXPS, read-out: K i*.
Setting [22] is: Table 1B, oxime derivatives, MtDXPS, read-out: K i*.

As a reminder, the EC50 is the concentration at which the effect is half-maximal. The half-life is the time needed for the level to fall by half in the phase considered. Read a low half-life as rapid decline. The term IC50 denotes the midpoint of a concentration-inhibition curve. For orientation: Kd means the equilibrium constant for the complex coming apart. A lower Kd goes with a tighter complex. A word on the inhibition: it is the share of the control response that was lost under treatment.

T1 sequence (P9WNS3 whole entry, looked up): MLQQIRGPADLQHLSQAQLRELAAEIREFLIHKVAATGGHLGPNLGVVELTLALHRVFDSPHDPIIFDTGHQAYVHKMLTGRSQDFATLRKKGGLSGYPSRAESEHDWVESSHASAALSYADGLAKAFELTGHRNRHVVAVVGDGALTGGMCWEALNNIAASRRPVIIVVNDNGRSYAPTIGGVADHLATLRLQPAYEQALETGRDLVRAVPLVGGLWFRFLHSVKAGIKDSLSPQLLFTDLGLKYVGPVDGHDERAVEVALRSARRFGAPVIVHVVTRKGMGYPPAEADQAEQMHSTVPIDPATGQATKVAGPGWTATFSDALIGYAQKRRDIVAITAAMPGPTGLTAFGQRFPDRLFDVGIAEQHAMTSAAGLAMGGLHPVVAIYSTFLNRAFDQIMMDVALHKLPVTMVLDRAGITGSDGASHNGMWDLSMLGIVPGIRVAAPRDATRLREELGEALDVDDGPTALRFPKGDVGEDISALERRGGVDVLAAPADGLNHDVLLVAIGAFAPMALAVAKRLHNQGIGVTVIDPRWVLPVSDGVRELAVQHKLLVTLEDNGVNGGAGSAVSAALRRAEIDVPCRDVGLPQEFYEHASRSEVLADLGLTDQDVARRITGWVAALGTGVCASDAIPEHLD
T2 sequence (Q9RUB5 whole entry, looked up): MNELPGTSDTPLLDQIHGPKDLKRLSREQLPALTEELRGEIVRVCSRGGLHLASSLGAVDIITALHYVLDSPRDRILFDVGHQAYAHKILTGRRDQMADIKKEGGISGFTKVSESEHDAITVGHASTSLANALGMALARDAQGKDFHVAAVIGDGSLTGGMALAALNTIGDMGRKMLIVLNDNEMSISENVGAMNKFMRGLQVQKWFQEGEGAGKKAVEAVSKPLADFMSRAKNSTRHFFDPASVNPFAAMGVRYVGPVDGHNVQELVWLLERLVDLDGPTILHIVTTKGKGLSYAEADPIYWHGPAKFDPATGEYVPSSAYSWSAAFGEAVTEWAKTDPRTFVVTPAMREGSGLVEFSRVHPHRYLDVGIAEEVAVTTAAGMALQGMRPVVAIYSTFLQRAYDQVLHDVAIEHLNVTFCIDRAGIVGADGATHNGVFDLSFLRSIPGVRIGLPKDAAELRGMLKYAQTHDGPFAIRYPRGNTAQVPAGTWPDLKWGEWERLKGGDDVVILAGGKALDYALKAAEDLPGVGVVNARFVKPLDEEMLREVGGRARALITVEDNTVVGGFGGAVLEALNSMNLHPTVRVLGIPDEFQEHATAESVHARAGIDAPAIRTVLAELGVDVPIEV

`OCc1cn(Cc2ccc(Cl)c(Cl)c2)c2ccc(F)cc12` [Compound 17]: in series [1], the “inhibitory activity against MtDXPS, SAR statement” value (“inhibitory activity against MtDXPS” for short) is reported as “more active than their parent molecules”. In addition, the Ki in series [1] (setting [19]) was found to be 0.4 ± 0.06 µM. The “activity against M. tuberculosis strains” value in series [2] is recorded as “no activity”. Further, the EC50 in series [3], in [4] and in series [5] was greater than 50 µM throughout. Also, in [6], the half-life at 10 µM was determined as 27 ± 10 min.
In turn, `OCc1cc(CO)n(CCc2c[nH]cn2)n1` [Compound 2, reference compound] gave an IC50 in [7] greater than 2000 µM. Further, the “inhibition of DrDXPS” value in [8] is “weak inhibitors”.
As to `COc1cncc(Cn2ccnc2)c1` [Compound 1, reference compound], the IC50 in [7] is greater than 2000 µM. For the same compound, in series [8], the “inhibition of DrDXPS” value is on record as “weak inhibitors”.
With `Cc1nc(C)c(-c2csc(Nc3ccc(Cl)cn3)n2)s1` [Compound 31], the IC50 in series [7] (setting [20]) is greater than 500 µM. The Ki in series [1] (setting [21]) was greater than 10 µM.
`Nc1ccc(/C(Cc2ccc(Cl)cc2)=N/O)c(O)c1` [Compound 25]: the “inhibitory activity against MtDXPS” value in series [1] was “more active than their parent molecules”. In addition, the Ki in series [1] (setting [22]) was found to be 0.1 ± 0.03 µM. Besides, the “activity against M. tuberculosis strains” value in series [2] is “retains some activity”. For the same compound, the values for the EC50 in [3], in [4] and in [5] were roughly 50 µM, 18 ± 5.5 µM and 0.73 ± 0.12 µM, respectively. This compound displayed a half-life at 10 µM in [6] of 56 ± 0.4 min.
As to `Cc1nc(N)sc1-c1csc(Nc2ccccc2C(F)(F)F)n1` [Compound 27], the Ki in [1] (setting [21]) worked out at 0.3 ± 0.02 µM.
In the case of `Cc1nc(N)sc1-c1csc(Nc2cccc(C(F)(F)F)c2)n1` [Compound 28], the Ki in series [1] (setting [21]) is 0.4 ± 0.06 µM.
On to `Cc1nc(N)sc1-c1csc(Nc2ccccc2)n1` [Compound 26], for which, in [7] (setting [20]), the IC50 was greater than 120 µM. Besides, the Ki in series [1] (setting [21]) was greater than 10 µM.
In the case of `COc1cccc2c(CO)cn(Cc3ccc(Cl)c(Cl)c3)c12` [Compound 19], the Ki in series [1] (setting [19]) was 1.4 ± 0.3 µM.
Turning to `COc1ccc(C/C(=N\O)c2ccc(O)cc2O)cc1` [Compound 22], in series [1] (setting [22]), the Ki was greater than 10 µM.
Consider `N/N=C(\Cc1ccc(Cl)cc1)c1ccc(O)cc1O` [Compound 21], for which, in series [1], the “inhibitory activity against MtDXPS” value is recorded as “activity is partially retained”. Further, the Ki in series [1] (setting [22]) is 0.4 ± 0.05 µM.
Regarding `Cc1ncc(Cc2csc(CCO)c2C)c(N)n1` [DZT, deazathiamine, reference compound], the IC50 in [7] is greater than 4000 µM; in [10] ([ThDP] 0.1 μM (1.6x Km), [PYR] 0.5 mM (2.4x), [D-GAP] 0.5 mM (2.9x)) it was 273 ± 16 µM; in series [10] ([ThDP] 0.5 μM (8x Km), [PYR] 0.5 mM (2.4x), [D-GAP] 1.0 mM (5.8x)), 1210 ± 156 µM; in [10] ([ThDP] 0.5 μM (8x Km), [PYR] […] (1.2x), [D-GAP] 0.5 mM (2.9x)), 486 ± 136 µM; in series [10] (reference condition [ThDP] 0.5 μM (8x Km), [PYR] 0.5 mM (2.4x), [D-GAP] 0.5 mM (2.9x)), 845 ± 177 µM. Besides, in [9], the “activity against MtDXPS” value is recorded as “not active”. In addition, the “inhibition of DrDXPS” value in [8] was “weak inhibitor”. The “mode of inhibition on DrDXPS” value in series [10] (MOI study, Fig. 2B) was “competitive with ThDP, PYR and D-GAP”.
Consider `CC1(C)C(=O)ON(Cc2ccccc2Cl)C1=O` [Ketoclomazone, ketoclomazone], for which the IC50 in [11] (read-out: Activity on target enzyme: IC50, Fig. 1A) is 1 µM.
Take `CCCCOP(=O)(O)C(C)=O` [BAP, Butylacetylphosphonate]: the “Activity on target pathogen: MIC” value in [12] was 5 µM. Also, the Ki in series [11] (read-out: Activity on target enzyme: Ki, Fig. 1A) was 5.6 µM.
As to `OCc1cn(Cc2ccc(Cl)c(Cl)c2)c2ccccc12` [Compound 7], the IC50 was 34 ± 4 µM in series [7] (IC50 (μM)); 34 µM and 82 µM in series [7] (IC50 against MtDXPS); 12 µM and 34 µM and 33 µM and 59 µM in series [7] (IC50 against MtDXPS (MOI study)). For the same compound, in series [7] (MOI study, comparison of IC50 under varied [ThDP], [PYR], [D-GAP]), the “mode of inhibition on MtDXPS” value is “competitive with ThDP and D-GAP, but non-competitive with PYR”. The “equilibration time (slow-binding)” value in series [7] (time-dependent progress curves, Fig. 4A, inhibitor 100 µM) is on record as roughly 100 s. Also, the “hit validation (false-positive check)” value in series [13] is “true inhibitors”. Besides, the Ki came to 1.3 ± 0.2 µM in [1] (K i* (μM), Table 1A, indole derivatives, MtDXPS); 1.29 µM in series [1] (Morrison constant Ki* against MtDXPS, two-step tight-binding Morrison model, Dynafit, text and Fig. 4C–E). Moreover, the MIC in series [14] ([IPTG] 0 mM) is 13 ± 1 µM (≈ 3.98 µg/mL); in series [14] ([IPTG] 0.5 mM (E. coli IspC overexpression)) it was 10 ± 2 µM (≈ 3.06 µg/mL); in series [15] (read-out: Antitubercular activity Strain & MIC (μM) A) it was 10 µM (≈ 3.06 µg/mL); in series [15] (read-out: Antitubercular activity Strain & MIC (μM) B), 10 µM (≈ 3.06 µg/mL); in series [15] (read-out: Antitubercular activity Strain & MIC (μM) C) it was 5 µM (≈ 1.53 µg/mL); in series [15] (read-out: Antitubercular activity Strain & MIC (μM) D), 5 to 10 µM (≈ 1.53 to 3.06 µg/mL). The MIC is 5 to 10 µM (≈ 1.53 to 3.06 µg/mL) in series [15] (read-out: Antitubercular activity Strain & MIC (μM) E); 5 to 10 µM (≈ 1.53 to 3.06 µg/mL) in [15] (read-out: Antitubercular activity Strain & MIC (μM) F); 10 ± 3 µM (≈ 3.06 µg/mL) in series [16] ([IPTG] 0 mM); 14 ± 2 µM (≈ 4.29 µg/mL) in series [16] ([IPTG] 0.5 mM (MtDXPS overexpression)); 22 ± 1 µM (≈ 6.74 µg/mL) in [18]. Also, the values for the EC50 in series [3], in series [4] and in [5] were roughly 50 µM, 16 ± 7 µM and 0.8 ± 0.2 µM, respectively. The compound also displayed a Kd in series [17] of 1.37 µM. This compound also displayed a half-life at 10 µM in series [6] of 6 ± 2 min. Moreover, the inhibition at 100 µM worked out at 63 ± 4% in series [10] ([ThDP] 0.1 μM (1.6x Km), [PYR] 0.5 mM (2.4x), [D-GAP] […] (1.5x)); 51 ± 3% in [10] ([ThDP] 0.1 μM (1.6x Km), [PYR] […] (1.2x), [D-GAP] 0.5 mM (2.9x)); 61 ± 5% in [10] ([ThDP] 0.1 μM (1.6x Km), [PYR] […] (1.2x), [D-GAP] […] (1.5x)); 48 ± 4% in series [10] ([ThDP] 0.2 μM (3.2x Km), [PYR] […] (1.2x), [D-GAP] […] (1.5x)).
